Consider 16 compounds from patent US8980886B2, “Anthranilic acid derivatives” (Bayer Cropscience AG, priority 2010, dated 2015).

The structures appear in SMILES notation.

Data set [1] can be described thus: logP by HPLC on reversed-phase columns (C 18), EEC Directive 79/831 Annex V.A8. The format is physicochemical. The following applies: reversed-phase HPLC column (C 18), pH 2.7, HPLC, reversed-phase C 18, acidic range pH 2.7; table of compounds; read-out: log P. The method, then:
The logP values reported in the table above and in the Preparation Examples were determined in accordance with EEC Directive 79/831 Annex V.A8 by HPLC (High Performance Liquid Chromatography) on reversed-phase columns (C 18), with the following methods: The LC-MS determination in the acidic range is carried out at pH 2.7 using the mobile phases 0.1% aqueous formic acid and acetonitrile (contains 0.1% formic acid), linear gradient from 10% acetonitrile to 95% acetonitrile Calibration was carried out using unbranched alkan-2-ones (having from 3 to 16 carbon atoms) with known logP values (the logP values were determined by the retention times using linear interpolation between two successive alkanones).

Data set [2] relates to Spodoptera frugiperda. The experiment in a line: Spodoptera frugiperda test (SPODFR spray treatment). The format is in vivo. The following applies: foliar, 168 h, sprayed maize leaf discs, after 7 days, read-out: effect in % (caterpillars killed). How it is done: Solvents: 78.0 parts by weight of acetone 1.5 parts by weight of dimethylformamide Emulsifier: 0.5 part by weight of alkylaryl polyglycol ether To produce a suitable preparation of active compound, 1 part by weight of active compound is mixed with the stated amount of solvents and emulsifier, and the concentrate is diluted with emulsifier-containing water to the desired concentration. Discs of maize leaves (Zea mays) are sprayed with an active compound preparation of the desired concentration and, after drying, populated with caterpillars of the armyworm (Spodoptera frugiperda). After 7 days, the effect in % is determined 100% means that all caterpillars have been killed; 0% means that none of the caterpillars have been killed.

Data set [3] deals with Phaedon cochleariae. The data set can be described thus: Phaedon test (PHAECO spray treatment). The following applies: 168 h, sprayed Chinese cabbage discs, after 7 days, read-out: activity in % (beetle larvae killed). The format is in vivo. How it is done:
(§1) Solvents: 78.0 parts by weight of acetone 1.5 parts by weight of dimethylformamide Emulsifier: 0.5 part by weight of alkylaryl polyglycol ether To produce a suitable preparation of active compound, 1 part by weight of active compound is mixed with the stated amount of solvents and emulsifier, and the concentrate is diluted with emulsifier-containing water to the desired concentration. Discs of Chinese cabbage (Brassica pekinensis) are sprayed with an active compound preparation of the desired concentration and, after drying, populated with larvae of the mustard beetle (Phaedon cochleariae). After 7 days, the activity in % is determined. 100% means that all beetle larvae have been killed; 0% means that none of the beetle larvae have been killed.

Data set [4] has as its system Boophilus microplus. The experiment in a line: Boophilus microplus test (BOOPMI injection). The format is in vivo. The note with it: 20 μg/animal, injection into the abdomen, after 7 days. The method, then:
Solvent: dimethyl sulphoxide To produce a suitable preparation of active compound, 10 mg of active compound are mixed with 0.5 ml of solvent and the concentrate is diluted with solvent to the desired concentration. The active compound solution is injected into the abdomen (Boophilus microplus), and the animals are transferred into dishes and stored in a climate-controlled room. The activity is assessed by […] of fertile eggs. After 7 days, the effect in % is determined. 100% means that none of the ticks has laid any fertile eggs.

Data set [5] relates to Lucilia cuprina. The data set can be described thus: Lucilia cuprina test (LUCICU). It is filed as in vivo. The note with it: 48 h, treated horse meat, larvae, after 2 days, read-out: kill in %. How it is done:
Solvent: dimethyl sulphoxide To produce a suitable preparation of active compound, 10 mg of active compound are mixed with 0.5 ml of dimethyl sulphoxide and the concentrate is diluted with water to the desired concentration. Vessels containing horse meat treated with the active compound preparation of the desired concentration are populated with about 20 Lucilia cuprina larvae. After 2 days, the kill in % is determined. 100% means that all of the larvae have been killed; 0% means that none of the larvae have been killed.

In data set [6] the test system is Tetranychus urticae. The experiment in a line: Tetranychus test, OP-resistant (TETRUR spray treatment). It is filed as in vivo. The note with it: 100 g/ha, sprayed bean leaf discs, all stages, after 6 days. How it is done:
as §1, with “of bean leaves (Phaseolus vulgaris) which are infested by all stages of the greenhouse red spider mite (Tetranychus urticae)” for “of Chinese cabbage (Brassica pekinensis)”, “desired concentration.” for “desired concentration and, after drying, populated with larvae of the mustard beetle (Phaedon cochleariae).”, “After 6” for “After 7”, “all of the spider mites” for “all beetle larvae”, “the spider mites” for “the beetle larvae”

The subject of data set [7] is Myzus persicae. The experiment in a line: Myzus test (MYZUPE spray treatment). The format is in vivo. The note with it: 100 g/ha, sprayed Chinese cabbage discs, all stages, after 6 days. How it is done:
Solvents: 78 parts by weight of acetone 1.5 parts by weight of dimethylformamide Emulsifier: 0.5 part by weight of alkylaryl polyglycol ether To produce a suitable preparation of active compound, 1 part by weight of active compound is mixed with the stated amount of solvents and emulsifier, and the concentrate is diluted with emulsifier-containing water to the desired concentration. Discs of Chinese cabbage (Brassica pekinensis) infested by all stages of the green peach aphid (Myzus persicae) are sprayed with an active compound preparation of the desired concentration. After 6 days, the effect in % is determined. 100% means that all of the aphids have been killed; 0% means that none of the aphids have been killed.

Data set [8] concerns Musca domestica. The data set can be described thus: Musca domestica test (MUSCDO). The format is in vivo. The following applies: 100 ppm, treated sponge, adult flies, after 2 days. The method, then:
Solvent: dimethyl sulphoxide To produce a suitable preparation of active compound, 10 mg of active compound are mixed with 0.5 ml of dimethyl sulphoxide and the concentrate is diluted with water to the desired concentration. Vessels containing a sponge treated with the active compound preparation of the desired concentration are populated with adult Musca domestica. After 2 days, the kill in % is determined. 100% means that all of the flies have been killed; 0% means that none of the flies have been killed.

`CNC(=O)c1cc(C#N)cc(C)c1NC(=O)c1cnc(Cn2nnc(C(F)(F)F)n2)nc1-c1ccccc1Cl` [Compound 38]: in data set [1], the chromatographic logP turned out to be 2.93. Also, the pest or weed control at 100 g/ha in data set [2] and in data set [3] was 100% in each case. In data set [4], the “effect in % (no fertile eggs laid)” value is 100%. The pest or weed control at 100 ppm in data set [5] turned out to be 100%.
Regarding `Cc1cc(Br)cc(C(N)=O)c1NC(=O)c1sc(Cn2nnc(C(F)(F)F)n2)nc1-c1ccccc1Cl` [Compound 3], in data set [1], the chromatographic logP amounted to 3.45. In addition, the “activity in % (spider mites killed)” value in data set [6] is listed as 100%. For the same compound, the pest or weed control at 100 ppm in data set [5] came to 100%.
In the case of `CNC(=O)c1cc(C#N)cc(C)c1NC(=O)c1cc(Cn2nnc(C(F)(F)F)n2)cn1-c1ccccc1Cl` [Compound 42], the chromatographic logP in data set [1] worked out at 3.31. Besides, the pest or weed control at 100 g/ha in data set [2] and in data set [3] was 100% in each case. Also, the “effect in % (aphids killed)” value in data set [7] is on record as 80%.
Consider `Cc1cc(C#N)cc(C(N)=O)c1NC(=O)c1cnc(Cn2nnc(C(F)(F)F)n2)nc1-c1ccccc1Cl` [Compound 40], for which, in data set [1], the chromatographic logP is 2.69. The pest or weed control at 100 g/ha in data set [2] and in data set [3] was 100% in each case. Further, in data set [4], the “effect in % (no fertile eggs laid)” value was 100%. The pest or weed control at 100 ppm in data set [5] turned out to be 100%.
For `Cc1cc(Cl)cc(C(=O)NC(C)C)c1NC(=O)c1cnc(Cn2nnc(C(F)(F)F)n2)nc1-c1ccccc1Cl` [Compound 34], the chromatographic logP in data set [1] was found to be 3.91. Besides, the pest or weed control at 100 g/ha in data set [2] and in data set [3] was 100% throughout. Moreover, the “effect in % (no fertile eggs laid)” value in data set [4] stood at 100%. Also, the pest or weed control at 100 ppm in data set [5] was 100%.
Turning to `CNC(=O)c1cc(Cl)cc(C)c1NC(=O)c1cc(Cn2nnc(C(F)(F)F)n2)cn1-c1ccccc1Cl` [Compound 43], the chromatographic logP in data set [1] is 3.75. Besides, the pest or weed control at 100 g/ha in data set [2] and in data set [3] was 100% throughout. In data set [7], the “effect in % (aphids killed)” value turned out to be 100%.
As to `Cc1cc(Cl)cc(C(=O)NC(C)(C)C)c1NC(=O)c1nc(Cn2nnc(C(F)(F)F)n2)sc1-c1ccccc1Cl` [Compound 8], in data set [1], the chromatographic logP was 4.75. The “activity in % (spider mites killed)” value in data set [6] came to 80%.
On to `Cc1cc(Br)cc(C(=O)NC(C)(C)C)c1NC(=O)c1sc(Cn2nnc(C(F)(F)F)n2)nc1-c1ccccc1Cl` [Compound 26], for which the chromatographic logP in data set [1] came to 4.69. Further, the pest or weed control at 100 g/ha in data set [2] and in data set [3] was 100% each time.
As to `Cc1cc(C#N)cc(C(=O)NC(C)(C)C)c1NC(=O)c1cnc(Cn2nnc(C(F)(F)F)n2)nc1-c1ccccc1Cl` [Compound 39], the chromatographic logP in data set [1] stood at 3.85. In addition, the pest or weed control at 100 g/ha in data set [2] and in data set [3] was 100% throughout. Moreover, in data set [4], the “effect in % (no fertile eggs laid)” value turned out to be 100%. In data set [5], the pest or weed control at 100 ppm was 100%.
Consider `Cc1cc(Cl)cc(C(N)=O)c1NC(=O)c1cnc(Cn2nnc(C(F)(F)F)n2)nc1-c1ccccc1Cl` [Compound 35], for which the chromatographic logP in data set [1] turned out to be 3.01. Moreover, the pest or weed control at 100 g/ha in data set [2] and in data set [3] was 100% throughout. In data set [4], the “effect in % (no fertile eggs laid)” value is reported as 98%. Further, the pest or weed control at 100 ppm in data set [5] worked out at 100%.
As for `Cc1cc(C#N)cc(C(=O)NC(C)C)c1NC(=O)c1sc(Cn2nnc(C(F)(F)F)n2)nc1-c1ccccc1Cl` [Compound 25], in data set [1], the chromatographic logP amounted to 3.7. Further, the pest or weed control at 100 g/ha in data set [2] and in data set [3] was 100% in each case.
As to `Cc1cc(C#N)cc(C(=O)NC(C)(C)C)c1NC(=O)c1sc(Cn2nnc(C(F)(F)F)n2)nc1-c1ccccc1Cl` [Compound 30], the chromatographic logP in data set [1] was 4.07. Also, the pest or weed control at 100 g/ha in data set [2] and in data set [3] was 100% each time.
As for `CNC(=O)c1cc(Cl)cc(C)c1NC(=O)c1cc(Cn2nnc(C(F)(F)C(F)(F)F)n2)cn1-c1ccccc1Cl` [Compound 44], in data set [1], the chromatographic logP was 4.09. The pest or weed control at 100 g/ha in data set [2] and in data set [3] was 100% throughout.
Turning to `Cc1cc(C#N)cc(C(=O)NC(C)C)c1NC(=O)c1cnc(Cn2nnc(C(F)(F)F)n2)nc1-c1ccccc1Cl` [Compound 37], the chromatographic logP in data set [1] is 3.5. Besides, the pest or weed control at 100 g/ha in data set [2] and in data set [3] was 100% throughout. The “effect in % (no fertile eggs laid)” value in data set [4] was 100%. Also, in data set [8], the kill in % is given as 100%. The pest or weed control at 100 ppm in data set [5] turned out to be 100%.
As for `Cc1cc(Br)cc(C(=O)NC(C)C)c1NC(=O)c1sc(Cn2nnc(C(F)(F)F)n2)nc1-c1ccccc1Cl` [Compound 11], the chromatographic logP in data set [1] came to 4.28. In addition, the pest or weed control at 100 g/ha in data set [2] and in data set [3] was 83% in each case.
On to `Cc1cc(Cl)cc(C(=O)NC(C)(C)C)c1NC(=O)c1cnc(Cn2nnc(C(F)(F)F)n2)nc1-c1ccccc1Cl` [Compound 41], for which the chromatographic logP in data set [1] is 4.33. The pest or weed control at 100 g/ha in data set [2] and in data set [3] was 100% each time. In data set [4], the “effect in % (no fertile eggs laid)” value stood at 100%. For the same compound, in data set [5], the pest or weed control at 100 ppm was found to be 100%.
